Measurements published in patent US11484608B2, “Non-invasive assessment of hepatic mitochondrial metabolism by positional isotopomer NMR tracer analysis (PINTA)” (YALE UNIVERSITY, priority 2017, dated 2022).

Key:
[1] = test system: primary mouse hepatocytes; experiment: Oxygen consumption in isolated hepatocytes (Seahorse); assay type: cell-based
Procedure: To assess oxygen consumption, primary mouse hepatocytes were isolated as described above and plated on collagen-I coated XF24 V7 cell culture plates (1.2×10^4 cells per well) in 2 mL recovery media as previously described (Camporez, J. P. et al. Endocrinology 154, 3099-3109). Following incubation for 6 hr at 37° C. and 5% CO2, the cells were washed twice with 1 ml Low Glucose Culture Media and incubated overnight in 250 μl low glucose culture media at 37° C. and 5% CO2. The following morning, cells were washed with XF24 assay media (DMEM Base containing 1.0 mM pyruvate, 2 mM glutamine and 5.5 mM glucose, pH 7.4). 500 μL of XF24 Assay Media was added to each well and plates were equilibrated at 37° C. for 1 h. Four measurements of basal oxygen consumption rates (picomoles per minute) were recorded on a Seahorse Bioscience XF^e 24 Analyzer (Seahorse Biosciences) using an instrument protocol of 3-minute mix, 2-minute wait, and 3-minute measure. […] Ten measurements were taken following injection and the average of eight measurements were used for subsequent analyses. Oxygen consumption rates were normalized to total protein content and expressed as fold change compared to vehicle-treated cells. Experiments were repeated three times using 3-4 mice per genotype.

[2] = test system: NAFLD and glucose tolerance (InsP3R-I dependent); experiment: Chronic 3.5 week glucagon infusion in high fat fed WT and InsP3R-I KO mice; assay type: in vivo, mouse
Procedure: They underwent CLAMS metabolic cage analysis to assess energetics and food and water intake during the second week of glucagon infusion. […] 48 hr later, after a 6 hr fast, they were sacrificed under isoflurane anesthesia for measurement of hepatic lipid content as described below.
In the glucose tolerance tests, rodents were injected with 1 g kg^−1 50% dextrose (rats) or 10% dextrose (mice) intraperitoneally. Blood samples were taken through the venous catheter (rats) or by tail bleeding (mice) for measurement of plasma glucose and insulin concentrations as described below (Biochemical analysis).
Plasma glucose concentrations were measured using a YSI Glucose Analyzer. […] Plasma NEFA concentrations were measured using the Wako NEFA assay, while plasma glycerol and plasma and liver amino acid concentrations were measured by GC/MS. Liver acetyl- and malonyl-CoA (standard curve R^2=0.999 and 0.999), long-chain CoA, DAG, and ceramide concentrations were measured by LC-MS/MS, hepatic glycogen content following amyloglucosidase digestion, and TAG concentrations enzymatically. cAMP concentrations were measured using the Enzo Life Sciences Direct cAMP ELISA. Protein concentrations were measured by Western blot, using antibodies from Santa Cruz (PC, PEPCK, CAMKII), Cell Signaling (ATGL, pCAMKIV, CAMKIV, pCRTC2, CRTC2, pACC, ACC, pAMPK, AMPK, pHSL, HSL, GAPDH, and β-actin), Novus Biologicals (pCAMKII), Abcam (pATGL), LSBio (pInsP3R-I), and BD Transduction Laboratories (InsP3R-II, InsP3R-III, PKCε). The antibody to pATGL was kindly provided by Dr. Hei Sook Sul, while the antibody to total InsP3R-I was custom-made using an epitope against the last 18 amino acids of InsP3R-I. Gluconeogenic gene mRNA expression was measured by qPCR^45 using primers sequences as follows: […]

[3] = test system: primary mouse hepatocytes; experiment: In vitro glucose production, VPC and lipolysis in isolated hepatocytes; assay type: cell-based
Summary of the method: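 Primary mouse hepatocytes were plated and cultured overnight in low-glucose DMEM, with 10% FBS for glucose production or serum-free 0.5% BSA medium for lipolysis. Media were then collected after 8 hr at 37° C for glucose, NEFA and glycerol, and VPC was derived as the PINTA VPC/VEGP ratio × glucose production. Agents were present through the 8-hr assay, and values were normalized to total protein and expressed as fold change vs vehicle.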

[4] = isolated WT hepatocytes, 100 nM glucagon, 8 hr

glucagon
stimulation of mitochondrial oxidation ([1]; InsP3R-I KO hepatocytes from male mice): blunted | stimulation of mitochondrial oxidation ([1]; WT hepatocytes from male mice): ~60% | oxygen consumption ([1]; isolated WT hepatocytes, 100 nM glucagon, not InsP3R-I KO): increase | hepatic lipid content or glucose tolerance ([2]; diet-induced obese InsP3R-I KO mice): did not manifest any alterations | body weight, food and water intake, activity and energy expenditure ([2]; diet-induced obese WT mice): unchanged | glucose tolerance ([2]; diet-induced obese WT mice): marked improvement | hepatic ceramide concentrations ([2]; diet-induced obese WT mice): without any alterations | reductions in liver triglyceride and diacylglycerol content and PKCε translocation ([2]; diet-induced obese WT mice, four-week continuous glucagon infusion): 50-80% | increases in NEFA and glycerol production ([3]; WT hepatocytes, glucagon, not InsP3R-I deficient): 60-100% | increase in VPC flux [3, 4]: two-fold | increase in glucose production [3, 4]: two-fold
